Reference: the Deep4Chem optical property database
Several values for one entry are separate records, joined by “and”; a condition that tells them apart may be missing. Equal values may be shown once.

Experiment: solvent given as SMILES

CC(C)[Si]1(C(C)C)c2cc(C#N)ccc2-c2ccc(N(C)C)cc21
emission maximum (in C1CCCCC1): 410 nm
emission maximum (in CC#N): 464 nm
emission maximum (in CCO): 456 nm
emission maximum (in CCOCC): 423 nm
emission maximum (in CS(C)=O): 473 nm
emission maximum (in ClCCl): 442 nm
emission maximum (in c1ccccc1): 422 nm

CCN(CC)c1ccc2cc(-c3ccc(-c4c5ccccc5c(-c5ccc(-c6cc7ccc(N(CC)CC)cc7oc6=O)cc5)c5ccccc45)cc3)c(=O)oc2c1
emission maximum (in ClC(Cl)Cl): 472 nm

CCCn1c2cccc3oc4cccc5c4[c+](c32)c2c1cccc2n5CCC
emission maximum (in CC#N): 590 nm

Cc1ccc(C2=Cc3c4ccccc4cc[n+]3[B-](F)(F)O2)cc1
emission maximum (in ClC(Cl)Cl): 471 nm

CNc1cccc2c1C(=O)c1ccccc1-2
emission maximum (in C1CCCCC1): 497 nm
emission maximum (in CC#N): 533 nm
emission maximum (in CCO): 542 nm
emission maximum (in c1ccccc1): 519 nm

O=S(=O)(c1cccc(-n2c3ccccc3c3ccccc32)c1)c1cccc(-n2c3ccccc3c3ccccc32)c1
emission maximum (in C1CCOC1): 426 nm
emission maximum (in CCCCC(CC)n1c2ccc(-n3c4ccccc4c4ccccc43)cc2c2cc(-n3c4ccccc4c4ccccc43)ccc21): 409.97 nm
emission maximum (in Cc1ccccc1): 405 nm
emission maximum (in ClC(Cl)Cl): 422 nm
emission maximum (in c1cc(-n2c3ccccc3c3ccccc32)cc(-n2c3ccccc3c3ccccc32)c1): 419.94 nm

CCCCC(CC)CN1C(=O)c2cccc3c(C#Cc4ccc(N(c5ccccc5)c5ccccc5)cc4)ccc(c23)C1=O (stereo unspecified)
emission maximum (in C1CCCCC1): 462 nm
emission maximum (in C1CCOC1): 621 nm
emission maximum (in CC#N): 547 nm
emission maximum (in Cc1ccccc1): 512 nm
emission maximum (in ClC(Cl)Cl): 582 nm

c1ccc(-c2cc(-c3ccc(N4c5ccccc5C(c5ccccc5)(c5ccccc5)c5ccccc54)cc3)nc(-c3ccccc3)n2)cc1
emission maximum (in Cc1ccccc1): 450 nm
emission maximum (in O=P(c1ccccc1)(c1ccccc1)c1ccccc1Oc1ccccc1P(=O)(c1ccccc1)c1ccccc1): 464 nm

COC(=O)c1nc2cnc(N)nc2n1Cc1ccccc1
emission maximum (in C1COCCO1): 386 nm
emission maximum (in CC#N): 388 nm
emission maximum (in CO): 412 nm
emission maximum (in ClCCl): 379 nm
emission maximum (in O): 420 nm

CN(C)c1ccc2c(c1)COc1c-2oc2ccccc2c1=O
emission maximum (in C1CCCCC1): 411.43 nm
emission maximum (in CC#N): 489 nm and 491.43 nm
emission maximum (in CCOC(C)=O): 464 nm and 461.07 nm
emission maximum (in Cc1ccccc1): 441 nm

O=C1c2ccccc2S(=O)(=O)c2ccc(-n3c4ccccc4c4ccccc43)cc21
emission maximum (in C1CCOC1): 576 nm
emission maximum (in CCCCCC): 485 nm
emission maximum (in Cc1ccccc1): 535.5 nm
emission maximum (in ClC(Cl)Cl): 595.5 nm
emission maximum (in ClCCl): 609.5 nm

CC1=CC(C)=[N+]2C1=C(c1ccc(-c3c4ccccc4c(-c4ccccc4)c4ccccc34)cc1)c1c(C)cc(C)n1[B-]2(F)F
emission maximum (in CC#N): 508 nm
emission maximum (in CCCCCC): 511 nm
emission maximum (in CCO): 510 nm
emission maximum (in CN(C)C=O): 510 nm
emission maximum (in Cc1ccccc1): 515 nm
emission maximum (in ClCCl): 512 nm

Fc1ccc2sc3nc(-c4ccccc4)sc3c2c1
emission maximum (in CS(C)=O): 409 nm

C(=C\c1c2ccccc2cc2ccccc12)/c1ccc2ccccc2c1
emission maximum (in CC1CCCCC1): 488 nm
emission maximum (in CC#N): 490 nm

COc1ccc(NC(=O)C(C(=O)Nc2ccc(OC)cc2)C(c2cc(F)ccc2O)c2c[nH]c3ccc(OC)cc23)cc1 (stereo unspecified)
emission maximum (in CS(C)=O): 341 nm

O=Cc1ccc(-c2cccc(-c3nc4ccccc4s3)c2O)o1
emission maximum (in CCO): 567 nm
emission maximum (in ClCCl): 565 nm
emission maximum (in O): 585 nm

COc1ccc(O[B-]2(Oc3ccc(OC)cc3)n3c(C)cc(C)c3C(c3ccc(I)cc3)=C3C(C)=CC(C)=[N+]32)cc1
emission maximum (in ClC(Cl)Cl): 518.49 nm

c1ccc2c(c1)Sc1ccccc1N2c1ccc2c(ccc3nc4ccc5cc(N6c7ccccc7Sc7ccccc76)ccc5c4nc32)c1
emission maximum (in C1CCCCC1): 543 nm
emission maximum (in Cc1ccccc1): 657 nm

CCn1c(-c2ccc(-c3ccc(-c4ccc(-c5n(CC)c6ccccc6[n+]5CC)cc4)c(C)c3)cc2)[n+](CC)c2ccccc21
emission maximum (in O): 400 nm

c1ccc(Nc2nc(Nc3ccccc3)nc(Nc3ccc4ccc5cccc6ccc3c4c56)n2)cc1
emission maximum (in CC#N): 395 nm
emission maximum (in CCCCOCCCC): 394 nm
emission maximum (in CO): 395 nm

Cc1cc(-n2c3ccccc3c3cc(C#N)ccc32)ccc1-c1ccc(S(=O)(=O)c2ccccc2)cc1C
emission maximum (in C1CCOC1): 369.19 nm
emission maximum (in CC#N): 369.19 nm
emission maximum (in Cc1ccccc1): 352 nm
emission maximum (in ClCCl): 369.19 nm

CC1=[N+]2C(=C(c3ccc(C(=O)c4ccccc4)cc3)c3ccc(C)n3[B-]2(F)F)C=C1c1cc2n(c1)[B-](F)(F)[N+]1=CC=CC1=C2c1c(C)cc(C)cc1C
emission maximum (in C1CCCCC1): 645 nm
emission maximum (in CCOC(C)=O): 664 nm

CC1(C)CCc2c(c3ccccc3c3nc4ccccc4nc23)O1
emission maximum (in C1CCCCC1): 459.98 nm
emission maximum (in C1CCOC1): 483.09 nm
emission maximum (in CN(C)C=O): 501 nm
emission maximum (in CO): 510.99 nm
emission maximum (in ClC(Cl)Cl): 490.92 nm
emission maximum (in c1ccccc1): 471.03 nm

COc1ccc2c3c(c4ccc(OC)cc4c2c1)C1(c2ccccc2-c2ccccc21)c1ccccc1-3
emission maximum (in C1CCCCC1): 389 nm

N#Cc1nc(N(Cc2ccc(Cl)cc2)Cc2ccc(Cl)cc2)c(C#N)nc1N(Cc1ccc(Cl)cc1)Cc1ccc(Cl)cc1
emission maximum (in ClC(Cl)Cl): 577 nm

COc1cc2c(cc1F)c(=O)c1cc(F)c(OC)cc1n2-c1ccccc1
emission maximum (in CCO): 424 nm

CCN(CC)c1ccc2cc(C#N)/c(=N\C(=O)C(C)C)oc2c1
emission maximum (in CCO): 470 nm
emission maximum (in ClCCl): 460 nm

CCCCN(CCCC)c1ccc(C#Cc2cc(C#Cc3ccc(C#N)cc3)c(C#Cc3ccc(C#N)cc3)cc2C#Cc2ccc(N(CCCC)CCCC)cc2)cc1
emission maximum (in ClCCl): 563 nm
emission maximum (in c1ccccc1): 508 nm

CCN1\C(=C/C=C/C=C/C2=[N+](CC)c3ccc4ccccc4c3C2(C)C)C(C)(C)c2c1ccc1ccccc21
emission maximum (in C1CCOC1): 707 nm
emission maximum (in CC#N): 695 nm
emission maximum (in CC(C)=O): 698 nm
emission maximum (in CCO): 702 nm
emission maximum (in CN(C)C=O): 702 nm
emission maximum (in CO): 698 nm
emission maximum (in CS(C)=O): 705 nm
emission maximum (in ClCCl): 710 nm

C=CCNc1ccc2ccc3oc4cc(=[N+](C)C)ccc-4nc3c2c1
emission maximum (in CC#N): 637 nm
emission maximum (in CCO): 631 nm
emission maximum (in ClCCl): 620 nm
emission maximum (in O): 650 nm

CCCC1(CCC)c2cc(-c3ccc(-c4ccc(OC)cc4)o3)ccc2-c2ccc(-c3ccc(-c4ccc(OC)cc4)o3)cc21
emission maximum (in C1CCCCC1): 425 nm

CC(C)(C)c1cc2c3cc(C(C)(C)C)c(-c4cc5cc6c7cccc8cccc(c9cc(C(C)(C)C)cc(c5cc4C(C)(C)C)c96)c87)cc3cc3c4cccc5cccc(c(c1)c23)c54
emission maximum (in CC1CCCCC1): 454 nm

COc1ccccc1C1=NC2c3cccc4cccc(c34)C2N1c1ccccc1 (stereo unspecified)
emission maximum (in Cc1ccccc1): 379 nm

CCOC(=O)c1c(-c2c(Cl)c3ccccc3oc2=O)nn(-c2ccccc2)c1C(=O)OCC
emission maximum (in ClCCl): 406 nm

COc1ccc(-c2n[n+]3c(s2)N=C(c2ccccc2)O[B-]3(F)F)cc1
emission maximum (in Cc1ccccc1): 436 nm

CCCCn1c2ccccc2c2cc(C#Cc3ccc4ccc5cccc6ccc3c4c56)ccc21
emission maximum (in ClCCl): 450 nm

COC(=O)c1cc(=O)n(C)c2cc(-c3ccccc3OC)sc12
emission maximum (in CC#N): 468 nm
emission maximum (in ClCCl): 469 nm

c1ccc(N2c3ccc4ccccc4c3-c3c4ccccc4cn[n+]3[B-]2(c2ccccc2)c2ccccc2)cc1
emission maximum (in Cc1ccccc1): 657 nm

CCC1(CC)c2cc(C=O)ccc2-c2ccc(N(C)C)cc21
emission maximum (in C1CCCCC1): 416 nm
emission maximum (in CC#N): 521 nm
emission maximum (in CCO): 562 nm
emission maximum (in CCOCC): 436 nm
emission maximum (in CS(C)=O): 532 nm
emission maximum (in ClCCl): 491 nm
emission maximum (in c1ccccc1): 437 nm

CCOC(=O)c1sc2nc3c(c(C#N)c2c1N)CCCC3
emission maximum (in c1ccccc1): 545 nm

N#CC(C#N)=Cc1ccc2c(c1)c1ccccc1n2-c1cccc2ccccc12
emission maximum (in ClCCl): 473 nm

c1ccc2c(-n3cnc4ccccc43)cccc2c1
emission maximum (in C1CCCCC1): 358 nm
emission maximum (in C1CCOC1): 359 nm
emission maximum (in CC#N): 362 nm
emission maximum (in CCO): 360 nm
emission maximum (in CCOC(C)=O): 361 nm
emission maximum (in CCOCC): 361 nm
emission maximum (in CO): 360 nm
emission maximum (in Cc1ccccc1): 359 nm
emission maximum (in ClC(Cl)Cl): 362 nm

Nc1ccc(/C=C/c2ccc3ccccc3c2)cc1
emission maximum (in CC#N): 450 nm
emission maximum (in CCCCCC): 392 nm

COc1ccc2c(c1)c1cc(OC)ccc1n2-c1cc(Cl)c([C](c2c(Cl)cc(Cl)cc2Cl)c2c(Cl)cc(Cl)cc2Cl)c(Cl)c1
emission maximum (in C1CCCCC1): 728 nm

CCOC(=O)C1=CN(c2ccccc2)C=C(C(=O)OCC)C1
emission maximum (in C1CCOC1): 426 nm
emission maximum (in CO): 441 nm

c1ccc2c(c1)-c1c(cc3ccc4cccc5ccc1c3c45)C21c2cc(-c3ccc4ccc5cccc6ccc3c4c56)ccc2-c2ccc(-c3ccc4ccc5cccc6ccc3c4c56)cc21
emission maximum (in ClC(Cl)Cl): 424 nm

Cc1cccc2nc3[nH]c(=O)[nH]c(=O)c3nc12
emission maximum (in CC#N): 452 nm

CC1(C)c2ccccc2N(c2ccc3c(c2)c2cc(N4c5ccccc5C(C)(C)c5ccccc54)cc4c5ccccc5n3c42)c2ccccc21
emission maximum (in C1CCCCC1): 427.57 nm
emission maximum (in C1CCOC1): 481.94 nm
emission maximum (in Cc1ccccc1): 449 nm

COc1ccc(-c2c3nc(cc4ccc([nH]4)c(-c4ccc(OC)c(OCC(=O)O)c4)c4nc(cc5ccc2[nH]5)CC4)CC3)cc1OCC(=O)O
emission maximum (in CS(C)=O): 738 nm

N#Cc1nc(-c2ccc(N3c4ccccc4Oc4ccccc43)cc2)c(-c2ccc(N3c4ccccc4Oc4ccccc43)cc2)nc1C#N
emission maximum (in c1cc(-c2cccc(-n3c4ccccc4c4ccccc43)c2)cc(-n2c3ccccc3c3ccccc32)c1): 610 nm

Cc1cc(C)c(C2=C3C=CC4=[N+]3[B-]3(Oc5ccccc54)Oc4ccccc4-c4ccc2n43)c(C)c1 (stereo unspecified)
emission maximum (in ClC(Cl)Cl): 645 nm

COc1ccc2cc(-c3ccc(C(F)(F)F)cc3)oc(=O)c2c1
emission maximum (in CCCCCC): 397 nm
emission maximum (in CCCCCCCCO): 410 nm
emission maximum (in CCCCO): 411 nm
emission maximum (in CCCO): 410 nm
emission maximum (in CCO): 412 nm
emission maximum (in CCOC(C)=O): 404 nm
emission maximum (in CN(C)C=O): 411 nm
emission maximum (in CO): 413 nm
emission maximum (in ClC(Cl)Cl): 409 nm

Cc1c(COC(=O)Cc2c[nH]c3ccccc23)n2c(OCC(=O)Cc3c[nH]c4ccccc34)c(C)c(=O)n2c1=O
emission maximum (in CCO): 452 nm
